What was measured:
PIK3CA(E545K) = test: KINOMEscan; conditions: 50000 nM
Description: KINOMEscan™ selectivity screen
(§1) The assay was perfor med at DiscoveRx Corporation according the methods published previously5. Briefly, Kinase-tagged T7 phage strains were grown in parallel in an E. coli host derived from the BL21 strain. E. coli were grown to log-phase and infected with T7 phage from a frozen stock and incubated with shaking at 32°C until lysis (90-150 minutes). The kinases were produced in HEK-293 cells and subsequently tagged with DNA for qPCR detection. Streptavidin-coated magnetic beads were treated with biotinylated small molecule ligands to generate affinity resins for kinase
(§2) inhibitor or DMSO control was performed in polypropylene 384-well plates for 1 hr at room temperature. After wash with PBS buffer containing 0.05% Tween 20, the beads were incubated in elution buffer (PBS containing 0.05 % Tween 20 and 0.5 μM non-biotinylated affinity ligand) for 30 minutes at room temperature. The kinase concentration in the eluates was measured by qPCR.

LZK = test: KINOMEscan; conditions: 50000 nM
Description: KINOMEscan™ selectivity screen
(§3) Briefly, Kinase-tagged T7 phage strains were grown in parallel in an E. coli host derived from the BL21 strain. E. coli were grown to log-phase and infected with T7 phage from a frozen stock and incubated with shaking at 32°C until lysis (90-150 minutes). The kinases were produced in HEK-293 cells and subsequently tagged with DNA for qPCR detection. Streptavidin-coated magnetic beads were treated with biotinylated small molecule ligands to generate affinity resins for kinase
as §2

MYO3A = test: KINOMEscan; conditions: 50000 nM
Description: KINOMEscan™ selectivity screen
as §1, §2

CDK7 = test: KINOMEscan; conditions: 50000 nM
Description: KINOMEscan™ selectivity screen
as §1, §2

[1] = test system: RSK3(Kin.Dom.1-N-terminal); test: KINOMEscan; conditions: 50000 nM
Description: KINOMEscan™ selectivity screen
as §3, §2

EGFR(L858R) = test: KINOMEscan; conditions: 50000 nM
Description: KINOMEscan™ selectivity screen
as §1, §2

FES = test: KINOMEscan; conditions: 50000 nM
Description: KINOMEscan™ selectivity screen
as §3, §2

PIK3CA(C420R) = test: KINOMEscan; conditions: 50000 nM
Description: KINOMEscan™ selectivity screen
as §3, §2

GRK3 = test: KINOMEscan; conditions: 50000 nM
Description: KINOMEscan™ selectivity screen
as §3, §2

DYRK1A = test: KINOMEscan; conditions: 50000 nM
Description: KINOMEscan™ selectivity screen
as §1, §2

HIPK2 = test: KINOMEscan; conditions: 50000 nM
Description: KINOMEscan™ selectivity screen
as §1, §2

PIP5K1C = test: KINOMEscan; conditions: 50000 nM
Description: KINOMEscan™ selectivity screen
as §1, §2

PIK3CA(Q546K) = test: KINOMEscan; conditions: 50000 nM
Description: KINOMEscan™ selectivity screen
as §3, §2

ERK8 = test: KINOMEscan; conditions: 50000 nM
Description: KINOMEscan™ selectivity screen
as §1, §2

FGFR2 = test: KINOMEscan; conditions: 50000 nM
Description: KINOMEscan™ selectivity screen
as §1, §2

SNRK = test: KINOMEscan; conditions: 50000 nM
Description: KINOMEscan™ selectivity screen
(§4) The assay was perfor med at DiscoveRx Corporation according the methods published previously5. […] The kinases were produced in HEK-293 cells and subsequently tagged with DNA for qPCR detection. Streptavidin-coated magnetic beads were treated with biotinylated small molecule ligands to generate affinity resins for kinase
as §2

SGK3 = test: KINOMEscan; conditions: 50000 nM
Description: KINOMEscan™ selectivity screen
as §1, §2

TGFBR1 = test: KINOMEscan; conditions: 50000 nM
Description: KINOMEscan™ selectivity screen
as §1, §2

KIT(L576P) = test: KINOMEscan; conditions: 50000 nM
Description: KINOMEscan™ selectivity screen
as §3, §2

PIK3CD = test: KINOMEscan; conditions: 50000 nM
Description: KINOMEscan™ selectivity screen
as §1, §2

LOK = test: KINOMEscan; conditions: 50000 nM
Description: KINOMEscan™ selectivity screen
as §1, §2

CAMK2B = test: KINOMEscan; conditions: 50000 nM
Description: KINOMEscan™ selectivity screen
as §3, §2

[2] = test system: RPS6KA4(Kin.Dom.1-N-terminal); test: KINOMEscan; conditions: 50000 nM
Description: KINOMEscan™ selectivity screen
as §3, §2

TNK1 = test: KINOMEscan; conditions: 50000 nM
Description: KINOMEscan™ selectivity screen
as §1, §2

PRKG1 = test: KINOMEscan; conditions: 50000 nM
Description: KINOMEscan™ selectivity screen
as §1, §2

KIT(V559D,V654A) = test: KINOMEscan; conditions: 50000 nM
Description: KINOMEscan™ selectivity screen
as §1, §2

MAK = test: KINOMEscan; conditions: 50000 nM
Description: KINOMEscan™ selectivity screen
as §1, §2

TRKB = test: KINOMEscan; conditions: 50000 nM
Description: KINOMEscan™ selectivity screen
as §4, §2

EPHA4 = test: KINOMEscan; conditions: 50000 nM
Description: KINOMEscan™ selectivity screen
as §3, §2

PDGFRA = test: KINOMEscan; conditions: 50000 nM
Description: KINOMEscan™ selectivity screen
as §1, §2

CAMKK1 = test: KINOMEscan; conditions: 50000 nM
Description: KINOMEscan™ selectivity screen
as §1, §2

EGFR(E746-A750del) = test: KINOMEscan; conditions: 50000 nM
Description: KINOMEscan™ selectivity screen
as §3, §2

KIT(V559D) = test: KINOMEscan; conditions: 50000 nM
Description: KINOMEscan™ selectivity screen
as §3, §2

CSNK1A1 = test: KINOMEscan; conditions: 50000 nM
Description: KINOMEscan™ selectivity screen
as §1, §2

SNARK = test: KINOMEscan; conditions: 50000 nM
Description: KINOMEscan™ selectivity screen
as §1, §2

MKK7 = test: KINOMEscan; conditions: 50000 nM
Description: KINOMEscan™ selectivity screen
as §1, §2

FLT3(ITD,F691L) = test: KINOMEscan; conditions: 50000 nM
Description: KINOMEscan™ selectivity screen
as §1, §2

[3] = test system: EGFR(L747-E749del, A750P); test: KINOMEscan; conditions: 50000 nM
Description: KINOMEscan™ selectivity screen
as §1, §2

BRSK1 = test: KINOMEscan; conditions: 50000 nM
Description: KINOMEscan™ selectivity screen
as §1, §2

ALK(L1196M) = test: KINOMEscan; conditions: 50000 nM
Description: KINOMEscan™ selectivity screen
as §1, §2

MAP3K2 = test: KINOMEscan; conditions: 50000 nM
Description: KINOMEscan™ selectivity screen
as §1, §2

Neuro 2A cells = test: MTS cell proliferation assay; format: cell-based, Mouse; conditions: 1 day
Description: Neuro 2A cells or NIH/3T3 cells (ATCC) were seeded at various confluency in a 96-well plate in 100 µL DMEM containing 5% FBS or 10% FBS with 1% penicillin streptomucin, respectively, at 37 °C in a 5% CO2 and 95% humidity incubator for 18 hr. To each well 1 µL inhibitor with various concentrations or DMSO was added. The final concentrations of the tested inhibitors were 0, 5, 10, 20, 40 and 80 µM for G7 and LY, and 0, 5, 10, 20, 40 and 80 nM for Torin1, based on their respective IC50 values (~µM for G7 and LY and ~ nM for Torin 1). After 24 hr, 20 µL of CellTiter 96® AQueous One Solution Reagent (Promega) were added. The plate was placed in the incubator for 2 h and absorbance at 490 nm was measured with a Synergy HT Microplate Reader (Bio-Tek).

DYRK2 = test: KINOMEscan; conditions: 50000 nM
Description: KINOMEscan™ selectivity screen
as §1, §2

PIK3CA(H1047L) = test: KINOMEscan; conditions: 50000 nM
Description: KINOMEscan™ selectivity screen
as §1, §2

CAMK1G = test: KINOMEscan; conditions: 50000 nM
Description: KINOMEscan™ selectivity screen
as §3, §2

`Oc1cc(-c2ccccc2)c2ccccc2n1` [G7, 4-phenylquinolin-2(1H)-one] was tested, and the “Percent Control” value (PIK3CA(E545K)) was 98%, the “Percent Control” value (LZK) was 94% and the “Percent Control” value (MYO3A) was 85%. For the same molecule, the “Percent Control” value (CDK7) was 84%, the “Percent Control” value [1] was 69% and the “Percent Control” value (EGFR(L858R)) was 83%. The “Percent Control” value (FES) was 92%, the “Percent Control” value (PIK3CA(C420R)) was 100% and the “Percent Control” value (GRK3) was 100%. The “Percent Control” value (DYRK1A) was 54%, the “Percent Control” value (HIPK2) was 63% and the “Percent Control” value (PIP5K1C) was 44%. The “Percent Control” value (PIK3CA(Q546K)) was 83%, the “Percent Control” value (ERK8) was 46% and the “Percent Control” value (FGFR2) was 80%. For the same molecule, the “Percent Control” value (SNRK) was 84%, the “Percent Control” value (SGK3) was 83% and the “Percent Control” value (TGFBR1) was 100%. For the same molecule, the “Percent Control” value (KIT(L576P)) was 22%, the “Percent Control” value (PIK3CD) was 100% and the “Percent Control” value (LOK) was 82%. For the same molecule, the “Percent Control” value (CAMK2B) was 92%, the “Percent Control” value [2] was 61% and the “Percent Control” value (TNK1) was 100%. For the same molecule, the “Percent Control” value (PRKG1) was 70%, the “Percent Control” value (KIT(V559D,V654A)) was 48% and the “Percent Control” value (MAK) was 77%. For the same molecule, the “Percent Control” value (TRKB) was 56%, the “Percent Control” value (EPHA4) was 93% and the “Percent Control” value (PDGFRA) was 52%. The “Percent Control” value (CAMKK1) was 80%, the “Percent Control” value (EGFR(E746-A750del)) was 70% and the “Percent Control” value (KIT(V559D)) was 20%. The “Percent Control” value (CSNK1A1) was 80%, the “Percent Control” value (SNARK) was 45% and the “Percent Control” value (MKK7) was 100%. For the same molecule, the “Percent Control” value (FLT3(ITD,F691L)) was 40%, the “Percent Control” value [3] was 89% and the “Percent Control” value (BRSK1) was 72%. For the same molecule, the “Percent Control” value (ALK(L1196M)) was 85%, the “Percent Control” value (MAP3K2) was 63% and the “proliferation of Neuro 2A cells” value (Neuro 2A cells) was “inhibited the proliferation”. For the same molecule, the “Percent Control” value (DYRK2) was 72%, the “Percent Control” value (PIK3CA(H1047L)) was 89% and the “Percent Control” value (CAMK1G) was 77%.

— article PMC5601486, “Identification of 4-phenylquinolin-2(1H)-one as a specific allosteric inhibitor of Akt” (Scientific Reports, 2017)
